Data set [1] has as its target T1, human CETP (Homo sapiens, UniProt P11597).
T1 sequence (P11597 18-493): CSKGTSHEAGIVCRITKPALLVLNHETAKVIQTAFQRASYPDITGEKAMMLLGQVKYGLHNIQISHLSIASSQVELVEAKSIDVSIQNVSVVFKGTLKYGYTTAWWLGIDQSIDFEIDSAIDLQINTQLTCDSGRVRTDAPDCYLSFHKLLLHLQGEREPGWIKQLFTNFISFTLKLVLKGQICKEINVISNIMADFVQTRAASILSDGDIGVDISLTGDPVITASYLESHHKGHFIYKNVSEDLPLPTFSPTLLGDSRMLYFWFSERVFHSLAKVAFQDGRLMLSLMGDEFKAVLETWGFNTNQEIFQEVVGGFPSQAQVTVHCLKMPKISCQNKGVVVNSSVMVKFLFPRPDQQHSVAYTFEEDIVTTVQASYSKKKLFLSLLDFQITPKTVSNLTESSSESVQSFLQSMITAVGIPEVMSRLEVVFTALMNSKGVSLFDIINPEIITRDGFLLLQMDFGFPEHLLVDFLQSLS
In words: Assay of cholesteryl ester transfer protein inhibitory activity, standard measurement system. In kind it is biochemical. To be noted: BODIPY-CE-ME donor, VLDL-LDL acceptor, reaction at 37° C. for 30 min. The procedure: (§1) Assay of Cholesteryl Ester Transfer Protein Inhibitory Activity
(§2) Fresh rabbit serum was adjusted with KBr to the density of (1.063 g/ml), and the fractions (VLDL-LDL, density<1.063 g/ml) floated by ultra-centrifugation operation (SW41—Ti, 40,000 rpm, 18 hrs., 4° C., Beckman model L8-55) were collected, subjected to dialysis against 0.15 M NaCl-10 mM Tris-HCl, pH 7.4 (TBS), sterilized by filtration through a filter and preserved at 4° C.
(§3) A solution of BODIPY-CE (0.6 mg) in chloroform was added to egg PC (phosphatidylcholine) ([…]) and triolein (2 mg), and after dissolution, the lipid was air dried under a nitrogen gas reflux and the solvent was removed under high vacuum. To this lipid was added an apo HDL solution (7.5 ml) obtained by defatting human HDL (1.063<d<1.21) with chloroform-methanol (2:1, v/v), dissolving in 6 M urea-containing TBS and dialyzing against TBS, and the mixture was subjected to sonication (BRANSON SONIFIRE CELL DISRUPTOR 200, dial 6, 5 min×4) to give BOBIPY-CE-ME. After centrifugation (CENTRIPREP 10), it was sterilized by filtration through a filter and preserved at 4° C.
The test compound (20% DMSO solution, 5 μl), TS (75 μl), acceptor lipoprotein (VLDL-LDL, 20 μl) and partially purified human CETP (25 μl) were mixed and incubated at 37° C. for 30 min. BODIPY-CE-ME (25 μl) was added (total 150 μl) and a transfer reaction was started. After reaction at 37° C. for 30 min., fluorescence intensity was measured at Ex. 490 nm/Em. 530 nm. The CETP inhibitory activity (% inhibition) was calculated by the following formula. [formula] 4) 50% Human Plasma-Containing Measurement System
(§4) The IC50 value was determined as a concentration showing 50% inhibition by plotting the logarithm of the concentration of test compound and % inhibition.

Data set [2] has as its target T1, human CETP. In words: Assay of cholesteryl ester transfer protein inhibitory activity, 50% human plasma-containing measurement system. The class given is biochemical. To be noted: BODIPY-CE-ME donor, VLDL-LDL acceptor, reaction at 37° C. for 60 min. The procedure:
as §1, §2, §3
The test compound (20% DMSO solution, 5 μl), human plasma (75 μl), acceptor lipoprotein (VLDL-LDL, 20 μl) and partially purified human CETP (25 μl) were mixed and incubated at 37° C. for 30 min. BODIPY-CE-ME (25 μl) was added (total 150 μl) and a transfer reaction was started. After reaction at 37° C. for 60 min., fluorescence intensity was measured at Ex. 490 nm/Em. 530 nm. The CETP inhibitory activity (% inhibition) was calculated by the following formula. [formula]
as §4

SMILES strings stand for the structures.

As for `O=C(N[C@H](Cc1cccc(OC(F)(F)C(F)F)c1)[C@@H](O)c1ccc(F)cc1)c1cccc2c1C=CCC2` (racemic) [Example 123, N-[(1RS,2SR)-2-(4-fluorophenyl)-2-hydroxy-1-[3-(1,1,2,2-tetrafluoroethoxy)benzyl]ethyl]-5,6-dihydronaphthalene-1-carboxamide], the melting point (usually the temperature, or range, at which the solid turns liquid) is 165 to 166 °C. Also, at human CETP [1], the midpoint of inhibition, the IC50, lay at 0.035 µM. Moreover, the IC50 (in general, the point on the concentration scale where inhibition reaches its midpoint) at human CETP [2] was 0.95 µM.
The compound `O=C(N[C@H](Cc1cccc(OC(F)(F)C(F)F)c1)[C@@H](O)c1ccnc(F)c1)c1cccc2c1C=CCCC2` (racemic) [Example 220, N-((1RS,2SR)-2-(2-fluoropyridin-4-yl)-2-hydroxy-1-((3-(1,1,2,2-tetrafluoroethoxy)phenyl)methyl)ethyl)-6,7-dihydro-5H-benzo[a]cycloheptene-1-carboxamide] displayed a melting point of 159 to 160 °C. The same compound returned an IC50 against human CETP [1] of 0.03 µM. Moreover, it took 1.4 µM to reach half-maximal inhibition on human CETP [2] (IC50).
In the same order, the values of `O=C(N[C@H](Cc1ccc(C(F)(F)F)cc1)[C@@H](O)c1ccc(F)cc1)c1ccc(F)c2ccccc12` (racemic) [Example 30, 4-fluoro-N-((1RS,2SR)-2-(4-fluorophenyl)-2-hydroxy-1-((4-(trifluoromethyl)phenyl)methyl)ethyl)-1-naphthalenecarboxamide] are 210 to 211 °C, 0.3 µM and 2.5 µM.
Consider `O=C(N[C@H](Cc1cccc(OC(F)(F)C(F)F)c1)[C@@H](O)c1cccc(F)n1)c1cccc2c1C=CCCC2` (racemic) [Example 222, N-((1RS,2RS)-2-(6-fluoropyridin-2-yl)-2-hydroxy-1-((3-(1,1,2,2-tetrafluoroethoxy)phenyl)methyl)ethyl)-6,7-dihydro-5H-benzo[a]cycloheptene-1-carboxamide], for which the melting point is 151 to 152 °C. This compound had an IC50 on human CETP [1] of 0.079 µM.
As to `O=C(N[C@H](Cc1ccc(C(F)(F)F)cc1)[C@@H](O)c1ccc(Oc2ccccc2)cc1)c1cccc2c1C=CCCC2` (racemic) [Example 210, N-((1RS,2SR)-2-hydroxy-2-(4-phenoxyphenyl)-1-((4-(trifluoromethyl)phenyl)methyl)ethyl)-6,7-dihydro-5H-benzo[a]cycloheptene-1-carboxamide], the IC50 on human CETP [1] was 0.088 µM; against human CETP [2], 1.4 µM.
`CC(C)c1ccc(C[C@@H](NC(=O)c2cccc3c2C=CCCC3)[C@@H](O)c2ccc(F)cc2)cc1` (racemic) [Example 155, N-[(1RS,2SR)-2-(4-fluorophenyl)-2-hydroxy-1-(4-isopropylbenzyl)ethyl]-6,7-dihydro-5H-benzo[a]cycloheptene-1-carboxamide]: the melting point lay in the range of 168 to 169 °C. Further, the IC50 on human CETP [1] stood at 0.095 µM. This compound gave an IC50 against human CETP [2] of 2.1 µM.
The compound `CCc1cc(Oc2ccc([C@H](O)[C@@H](Cc3cccc(OC(F)(F)C(F)F)c3)NC(=O)c3cccc4c3C=CCCC4)cc2)ccc1Cl` (racemic) [Example 218, N-((1RS,2SR)-2-(4-((4-chloro-3-ethylphenyl)oxy)phenyl)-2-hydroxy-1-((3-((1,1,2,2-tetrafluoroethyl)oxy)phenyl)methyl)ethyl)-6,7-dihydro-5H-benzo[a]cycloheptene-1-carboxamide] showed a melting point of 116 to 117 °C. For the same compound, the IC50 on human CETP [1] came out at 0.056 µM. On human CETP [2], inhibition was half-maximal at 0.66 µM (IC50).
Take `O=C(NC(Cc1cccc(OC(F)(F)C(F)F)c1)C(O)c1ccc(F)cc1)c1cccc2c1C=CCCC2` (stereo not drawn) [229(+)-form]: the IC50 against human CETP [1] worked out at 0.0086 µM; against human CETP [2], 0.24 µM.
For the compound `O=C(N[C@H](Cc1ccc(C(F)(F)F)cc1)[C@@H](O)c1ccc(F)cc1)c1cccc2c1C=CCCC2` (racemic) [Example 29, N-[(1RS,2SR)-2-(4-fluorophenyl)-2-hydroxy-1-[4-(trifluoromethyl)benzyl]ethyl]-6,7-dihydro-5H-benzo[a]cycloheptene-1-carboxamide], the melting point lay in the range of 197 to 198 °C. The compound further gave a half-inhibitory concentration (IC50) against human CETP [1] of 0.12 µM.
Take `O=C(NC(Cc1ccc(C(F)(F)F)cc1)C(O)c1ccc(F)cc1)c1cccc2ccccc12` (stereo not drawn) [226(+)-form]: the IC50 is 0.4 µM on human CETP [1] and 4.2 µM against human CETP [2].
In the same order, the values of `O=C(N[C@H](Cc1cccc(OC(F)(F)C(F)F)c1)[C@@H](O)c1ccc(Oc2ccccc2)cc1)c1cccc2c1C=CCCC2` (racemic) [Example 217, N-((1RS,2SR)-2-hydroxy-2-(4-(phenyloxy)phenyl)-1-((3-((1,1,2,2-tetrafluoroethyl)oxy)phenyl)methyl)ethyl)-6,7-dihydro-5H-benzo[a]cycloheptene-1-carboxamide] are 0.0084 µM and 0.08 µM.
Compound `O=C(N[C@H](Cc1ccc2c(c1)OC(F)(F)C(F)(F)O2)[C@@H](O)c1ccc(F)cc1)c1ccc(F)c2ccccc12` (racemic) [Example 271, 4-fluoro-N-{(1RS,2SR)-2-(4-fluorophenyl)-2-hydroxy-1-[(2,2,3,3-tetrafluoro-2,3-dihydro-1,4-benzodioxin-6-yl)methyl]ethyl}-1-naphthamide] came in with a melting point of 193 to 194 °C. Besides, the IC50 against human CETP [1] was 0.17 µM. For the same compound, on human CETP [2], the IC50 stood at 1.4 µM.
Take `O=C(NC(Cc1cccc(OC(F)(F)C(F)F)c1)C(O)c1ccc(F)cc1)c1ccc(F)c2ccccc12` (stereo not drawn) [228(+)-form]: the IC50 against human CETP [1] came to 0.03 µM; on human CETP [2] it was 0.99 µM.
Compound `CC(C)(C)c1ccc(C[C@@H](NC(=O)c2cccc3c(Cl)cccc23)[C@@H](O)c2cccc(Cl)c2)cc1` (racemic) [Example 274, N-[(1RS,2SR)-1-(4-tert-butylbenzyl)-2-(3-chlorophenyl)-2-hydroxyethyl]-5-chloro-1-naphthamide] displayed a melting point of 112 to 113 °C. Further, the half-inhibitory concentration (IC50) on human CETP [1] is 0.052 µM. Half-maximal inhibition on human CETP [2] (IC50) was put at 3.1 µM.
Compound `O=C(N[C@H](Cc1cccc(OC(F)(F)C(F)F)c1)[C@@H](O)c1ccc(F)cc1)c1cccc2c1C=CCCCC2` (racemic) [Example 126, N-[(1RS,2SR)-2-(4-fluorophenyl)-2-hydroxy-1-[3-(1,1,2,2-tetrafluoroethoxy)benzyl]ethyl]-5,6,7,8-tetrahydrobenzo[a]cyclooctene-1-carboxamide] returned a melting point of 189 to 190 °C. At human CETP [1], this compound displayed an IC50 of 0.07 µM. Moreover, on human CETP [2], the concentration for half-maximal inhibition (IC50) turned out to be 1 µM.
In the case of `O=C(N[C@H](Cc1cccc(OC(F)(F)C(F)F)c1)[C@@H](O)c1ccc(F)cc1)c1ccc(F)c2ccccc12` (racemic) [Example 125, 4-fluoro-N-[(1RS,2SR)-2-(4-fluorophenyl)-2-hydroxy-1-[3-(1,1,2,2-tetrafluoroethoxy)benzyl]ethyl]naphthalene-1-carboxamide], the melting point was 186 to 187 °C. This compound had a concentration for half-maximal inhibition (IC50) against human CETP [1] of 0.051 µM. On human CETP [2], this compound gave an IC50 of 2 µM.
For the compound `O=C(N[C@H](Cc1ccc(C(F)(F)F)cc1)[C@@H](O)c1cccc(F)c1)c1cccc2c1C=CCCC2` (racemic) [Example 177, N-((1RS,2SR)-2-(3-fluorophenyl)-2-hydroxy-1-((4-(trifluoromethyl)phenyl)methyl)ethyl)-6,7-dihydro-5H-benzo[a]cycloheptene-1-carboxamide], the melting point fell in the range of 151 to 152 °C. On human CETP [1], this compound had a concentration for half-maximal inhibition (IC50) of 0.091 µM.
In the case of `O=C(NC(Cc1ccc(C(F)(F)F)cc1)C(O)c1ccc(F)cc1)c1ccc(F)c2ccccc12` (stereo not drawn) [227(+)-form], the concentration for half-maximal inhibition (IC50) against human CETP [1] is 0.21 µM; against human CETP [2], 1.7 µM.

(Values after patent publication US6982348B2, “Aminoethanol derivatives” (Takeda Pharmaceutical Company Limited, priority 2001, dated 2006).)
